Reference: patent EP4745135A1 (Gluetacs Therapeutics (Shanghai) Co., Ltd., priority 2023, dated 2025)

Tests used:
[1] = system: Human multiple myeloma cell (MM.1S); experiment: Tumor cell proliferation inhibition (CellTiter-Meiluncell luminescent cell viability assay); settings: Homo sapiens, MM1.S, 96 h
Experimental: (§1) The tumor cells used herein were cultured in a cell culture medium listed in table 2 at 37°C in an incubator with 5% CO2. Prior to experimentation, all cell lines used were correctly identified by STR profiling, and tested negative for mycoplasma contamination using a mycoplasma detection kit through routine screenings.
(§2) The IC50 values of the compounds of the present disclosure (including the compounds in Table 1 and Examples) were determined using the CellTiter-Meiluncell Luminescent Cell Viability Assay Kit from Dalian Meilun Biotech Co., Ltd. The detailed procedure is as follows: Tumor cells were seeded in 96-well cell culture plates at the densities specified in Table 3. On the following day, the test compounds of the present disclosure were subjected to serial dilution. The dilution can be performed according to one of the following two methods: • (1) The first dilution method: The test compounds of the present disclosure (including the compounds in Table 1 and Examples) were subjected to 5-fold serial dilutions starting from a highest concentration of 2000 µM, resulting in a total of 9 concentrations from high to low (2000, 400, 80, 16, 3.2, 0.64, 0.128, 0.0256, 0.00512 µM). Subsequently, 0.5 µL of the test compound dilution was transferred into the 96-well plate containing the cells, with each well containing 100 µL of cell culture medium. […] Into the 96-well plate, the diluted test compounds and corresponding detection reagents were added, resulting in final test compound concentrations of 500 nM and 10 nM, respectively. The experimental procedure is described below using the diluted 2 µM test compound as an example.
(§3) 0.5 µL of the aforementioned diluted compound of the present disclosure (including the compounds in Table 1 and Examples) was added to the seeded cells in 100 µL of medium, yielding a final test compound concentration of 10 nM. After the cells were treated with the compounds of the present disclosure for a specified period, the cell viability assay reagent was added to the culture medium according to the kit's instructions to determine cell viability. […] All controls were treated using the same procedure as the compounds of the present disclosure. The growth inhibition curves for the compounds of the present disclosure were plotted using Prism GraphPad software, and the IC50 values were calculated therefrom.

IKZF1 = target: T1, IKZF1 (Homo sapiens, UniProt Q13422+Q96SW2); experiment: Western blot, degradation of substrate protein in hPBMCs; assay type: cell-based; settings: Western blot, 24 hours of compound treatment, compounds tested at 50 nM and 500 nM (concentration for the table not stated)
T1 construct: effects of the compounds of the present disclosure on the expression of target proteins in cells; endogenous in cells; host or cells: human PBMCs (Milecell Biotechnologies)

CK1α = target: T2, CK1α (Homo sapiens, UniProt P48729+Q96SW2); experiment: as above; assay type: cell-based; settings: Western blot, 24 hours of compound treatment, compounds tested at 50 nM and 500 nM (concentration for the table not stated)
T2 construct: effects of the compounds of the present disclosure on the expression of target proteins in cells; endogenous in cells; host or cells: human PBMCs (Milecell Biotechnologies)

IKZF3 = target: T3, IKZF3 (Homo sapiens, UniProt Q96SW2+Q9UKT9); experiment: as above; assay type: cell-based; settings: Western blot, 24 hours of compound treatment, compounds tested at 50 nM and 500 nM (concentration for the table not stated)
T3 construct: effects of the compounds of the present disclosure on the expression of target proteins in cells; endogenous in cells; host or cells: human PBMCs (Milecell Biotechnologies)

IKZF2 = target: T4, IKZF2 (Homo sapiens, UniProt Q96SW2+Q9UKS7); experiment: as above; assay type: cell-based; settings: Western blot, 24 hours of compound treatment, compounds tested at 50 nM and 500 nM (concentration for the table not stated)
T4 construct: effects of the compounds of the present disclosure on the expression of target proteins in cells; endogenous in cells; host or cells: human PBMCs (Milecell Biotechnologies)

WEE1 = target: T5, WEE1 (Homo sapiens, UniProt P30291+Q96SW2); experiment: as above; assay type: cell-based; settings: Western blot, 24 hours of compound treatment, compounds tested at 50 nM and 500 nM (concentration for the table not stated)
T5 construct: effects of the compounds of the present disclosure on the expression of target proteins in cells; endogenous in cells; host or cells: human PBMCs (Milecell Biotechnologies)

[2] = system: Human acute myeloid leukemia cell line: Kasumi-1; experiment: Tumor cell proliferation inhibition (CellTiter-Meiluncell luminescent cell viability assay); settings: Kasumi 1, 96 h; for inhibition at 0.01 µM: read-out: Inhibition Rate at 10 nM (%); for inhibition at 0.5 µM: read-out: Inhibition Rate at 500 nM (%)
Experimental: as §1, §2, §3

[3] = system: Human acute T lymphocytic leukemia cell (Molt4); experiment: as above; settings: MOLT-4, 96 h
[4] = target: T6, human Cereblon WT GST-tagged protein (Homo sapiens, UniProt Q96SW2); experiment: CRBN-binding affinity, HTRF (CEREBLON BINDING kit); settings: for inhibition at 0.5 µM: read-out: Inhibition Rate at 0.5 µM (%); for inhibition at 2 µM: read-out: Inhibition Rate at 2 µM (%)
T6 construct: purchased CISBIO 64BDCRBNPEH

GSPT1 = experiment: Western blot, degradation of substrate protein in hPBMCs; assay type: cell-based, Human; settings: Western blot, 24 hours of compound treatment, compounds tested at 50 nM and 500 nM (concentration for the table not stated)
[5] = system: Human T lymphocytic leukemia cell line: Jurkat; experiment: Tumor cell proliferation inhibition (CellTiter-Meiluncell luminescent cell viability assay); settings: 96 h; for inhibition at 0.01 µM: read-out: Inhibition Rate at 10 nM (%); for inhibition at 0.5 µM: read-out: Inhibition Rate at 500 nM (%)
[6] = system: Human myeloid monocytic leukemia cell (MV-4-11); experiment: as above; settings: MV4-11, 96 h; for inhibition at 0.01 µM: read-out: Inhibition Rate at 10 nM (%); for inhibition at 0.5 µM: read-out: Inhibition Rate at 500 nM (%)
[7] = system: Human T cell acute lymphoblastic leukemia cell (CCRF-CEM); experiment: as above; settings: 96 h
Experimental: as §1, §2, §3

[8] = system: Human multiple myeloma peripheral blood B lymphocyte cell (RPMI-8226); experiment: as above; settings: RPMI-8226, 96 h
Experimental: as §1, §2, §3

[9] = read-out: Inhibition Rate at 10 nM (%)
[10] = read-out: Inhibition Rate at 500 nM (%)

T2 sequence (P48729 whole entry): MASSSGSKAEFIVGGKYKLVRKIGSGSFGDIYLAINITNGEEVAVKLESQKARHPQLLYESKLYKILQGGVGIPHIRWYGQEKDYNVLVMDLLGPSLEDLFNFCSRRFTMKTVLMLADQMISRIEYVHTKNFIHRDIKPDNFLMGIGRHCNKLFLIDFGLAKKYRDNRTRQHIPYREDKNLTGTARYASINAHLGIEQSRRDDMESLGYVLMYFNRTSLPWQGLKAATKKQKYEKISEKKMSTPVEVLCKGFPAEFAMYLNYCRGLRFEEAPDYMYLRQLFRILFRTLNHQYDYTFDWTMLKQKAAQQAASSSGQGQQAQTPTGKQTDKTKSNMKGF
T2 sequence (Q96SW2 whole entry): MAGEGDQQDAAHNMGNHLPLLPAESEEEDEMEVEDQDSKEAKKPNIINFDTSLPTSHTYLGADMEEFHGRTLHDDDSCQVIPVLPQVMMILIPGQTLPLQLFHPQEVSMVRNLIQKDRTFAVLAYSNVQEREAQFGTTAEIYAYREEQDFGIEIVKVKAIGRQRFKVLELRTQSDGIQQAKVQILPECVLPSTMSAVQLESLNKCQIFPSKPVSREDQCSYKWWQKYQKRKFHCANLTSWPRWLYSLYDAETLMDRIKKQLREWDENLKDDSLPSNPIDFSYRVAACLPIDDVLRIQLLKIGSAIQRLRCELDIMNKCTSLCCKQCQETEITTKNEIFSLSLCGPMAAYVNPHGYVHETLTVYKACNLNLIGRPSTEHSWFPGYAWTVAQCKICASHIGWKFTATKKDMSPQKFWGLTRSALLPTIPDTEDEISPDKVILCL
T2 sequence (Q16531 whole entry partner): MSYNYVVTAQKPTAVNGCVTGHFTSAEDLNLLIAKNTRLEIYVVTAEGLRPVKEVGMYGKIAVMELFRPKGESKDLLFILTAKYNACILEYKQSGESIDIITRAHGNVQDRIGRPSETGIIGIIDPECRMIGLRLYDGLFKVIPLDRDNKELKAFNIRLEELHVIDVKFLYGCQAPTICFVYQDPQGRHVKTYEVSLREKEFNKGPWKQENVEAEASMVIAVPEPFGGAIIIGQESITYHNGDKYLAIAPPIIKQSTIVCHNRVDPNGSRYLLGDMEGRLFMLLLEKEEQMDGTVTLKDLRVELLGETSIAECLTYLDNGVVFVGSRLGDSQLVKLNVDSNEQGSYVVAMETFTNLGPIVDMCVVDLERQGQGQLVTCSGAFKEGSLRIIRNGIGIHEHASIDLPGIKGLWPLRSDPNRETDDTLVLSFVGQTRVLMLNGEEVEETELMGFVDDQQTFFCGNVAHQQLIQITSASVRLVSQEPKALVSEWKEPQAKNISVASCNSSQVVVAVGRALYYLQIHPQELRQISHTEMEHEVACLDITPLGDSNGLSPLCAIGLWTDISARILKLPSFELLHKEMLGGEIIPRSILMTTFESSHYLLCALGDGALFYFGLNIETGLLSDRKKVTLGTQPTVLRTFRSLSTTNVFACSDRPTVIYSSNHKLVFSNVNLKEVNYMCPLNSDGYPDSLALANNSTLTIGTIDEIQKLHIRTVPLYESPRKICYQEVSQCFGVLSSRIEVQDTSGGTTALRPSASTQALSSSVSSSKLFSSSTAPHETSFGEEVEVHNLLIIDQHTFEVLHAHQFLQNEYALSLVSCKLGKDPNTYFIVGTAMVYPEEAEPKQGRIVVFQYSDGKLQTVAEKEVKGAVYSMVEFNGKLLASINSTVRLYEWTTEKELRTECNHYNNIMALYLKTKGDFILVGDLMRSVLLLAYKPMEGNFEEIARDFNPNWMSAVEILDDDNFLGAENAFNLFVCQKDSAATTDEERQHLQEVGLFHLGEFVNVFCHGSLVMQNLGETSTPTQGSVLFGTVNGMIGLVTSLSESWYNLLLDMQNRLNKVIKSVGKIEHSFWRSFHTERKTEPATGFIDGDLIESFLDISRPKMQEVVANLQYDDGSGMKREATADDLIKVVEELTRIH
T1 sequence (Q13422 whole entry): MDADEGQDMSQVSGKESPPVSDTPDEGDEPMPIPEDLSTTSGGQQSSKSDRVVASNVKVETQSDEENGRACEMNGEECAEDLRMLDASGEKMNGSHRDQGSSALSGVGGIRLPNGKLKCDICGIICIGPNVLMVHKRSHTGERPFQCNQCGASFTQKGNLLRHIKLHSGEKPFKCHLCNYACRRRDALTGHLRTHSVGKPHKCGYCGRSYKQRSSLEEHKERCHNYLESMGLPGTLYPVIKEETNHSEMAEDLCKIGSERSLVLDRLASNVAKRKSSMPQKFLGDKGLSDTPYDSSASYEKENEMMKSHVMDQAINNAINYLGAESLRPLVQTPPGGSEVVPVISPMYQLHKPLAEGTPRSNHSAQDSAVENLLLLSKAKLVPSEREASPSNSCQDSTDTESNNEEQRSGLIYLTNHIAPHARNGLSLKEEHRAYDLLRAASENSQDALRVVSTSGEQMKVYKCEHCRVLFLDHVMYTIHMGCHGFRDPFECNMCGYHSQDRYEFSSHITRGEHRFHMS
T1 sequence (Q96SW2 whole entry): as the sequence (Q96SW2 whole entry) above
T1 sequence (Q16531 whole entry partner): as the sequence (Q16531 whole entry partner) above
T5 sequence (P30291 whole entry): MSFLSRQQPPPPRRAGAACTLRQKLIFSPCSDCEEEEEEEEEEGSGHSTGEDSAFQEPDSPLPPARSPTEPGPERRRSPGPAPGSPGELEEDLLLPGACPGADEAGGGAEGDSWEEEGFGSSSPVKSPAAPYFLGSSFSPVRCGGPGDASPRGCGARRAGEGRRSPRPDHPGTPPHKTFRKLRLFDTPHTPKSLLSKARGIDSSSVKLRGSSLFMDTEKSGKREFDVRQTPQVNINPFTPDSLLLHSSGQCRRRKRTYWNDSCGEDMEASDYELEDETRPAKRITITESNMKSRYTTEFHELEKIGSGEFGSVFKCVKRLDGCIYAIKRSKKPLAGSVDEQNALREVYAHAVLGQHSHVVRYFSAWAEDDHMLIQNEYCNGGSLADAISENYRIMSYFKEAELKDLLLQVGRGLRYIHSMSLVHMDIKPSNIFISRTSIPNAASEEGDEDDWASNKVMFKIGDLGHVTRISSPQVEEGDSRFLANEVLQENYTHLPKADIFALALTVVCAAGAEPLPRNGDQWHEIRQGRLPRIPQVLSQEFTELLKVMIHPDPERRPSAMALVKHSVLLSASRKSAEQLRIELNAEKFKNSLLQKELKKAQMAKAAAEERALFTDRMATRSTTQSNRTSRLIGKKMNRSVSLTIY
T5 sequence (Q96SW2 whole entry): as the sequence (Q96SW2 whole entry) above
T5 sequence (Q16531 whole entry partner): as the sequence (Q16531 whole entry partner) above
T3 sequence (Q9UKT9 whole entry): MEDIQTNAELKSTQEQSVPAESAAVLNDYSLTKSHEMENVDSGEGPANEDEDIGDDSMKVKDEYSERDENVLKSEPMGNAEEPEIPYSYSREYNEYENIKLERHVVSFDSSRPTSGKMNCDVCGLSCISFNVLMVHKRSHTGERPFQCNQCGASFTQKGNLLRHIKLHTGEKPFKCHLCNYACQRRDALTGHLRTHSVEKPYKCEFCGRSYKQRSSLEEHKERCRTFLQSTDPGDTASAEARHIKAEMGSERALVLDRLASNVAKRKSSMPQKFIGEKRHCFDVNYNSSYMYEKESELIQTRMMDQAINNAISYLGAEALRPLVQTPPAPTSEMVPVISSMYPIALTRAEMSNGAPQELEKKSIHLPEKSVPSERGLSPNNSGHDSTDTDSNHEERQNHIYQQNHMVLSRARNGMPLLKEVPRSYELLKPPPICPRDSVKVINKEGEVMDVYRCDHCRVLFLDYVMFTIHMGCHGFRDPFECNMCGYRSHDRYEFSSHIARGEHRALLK
T3 sequence (Q96SW2 whole entry): as the sequence (Q96SW2 whole entry) above
T3 sequence (Q16531 whole entry partner): as the sequence (Q16531 whole entry partner) above
T4 sequence (Q9UKS7 whole entry): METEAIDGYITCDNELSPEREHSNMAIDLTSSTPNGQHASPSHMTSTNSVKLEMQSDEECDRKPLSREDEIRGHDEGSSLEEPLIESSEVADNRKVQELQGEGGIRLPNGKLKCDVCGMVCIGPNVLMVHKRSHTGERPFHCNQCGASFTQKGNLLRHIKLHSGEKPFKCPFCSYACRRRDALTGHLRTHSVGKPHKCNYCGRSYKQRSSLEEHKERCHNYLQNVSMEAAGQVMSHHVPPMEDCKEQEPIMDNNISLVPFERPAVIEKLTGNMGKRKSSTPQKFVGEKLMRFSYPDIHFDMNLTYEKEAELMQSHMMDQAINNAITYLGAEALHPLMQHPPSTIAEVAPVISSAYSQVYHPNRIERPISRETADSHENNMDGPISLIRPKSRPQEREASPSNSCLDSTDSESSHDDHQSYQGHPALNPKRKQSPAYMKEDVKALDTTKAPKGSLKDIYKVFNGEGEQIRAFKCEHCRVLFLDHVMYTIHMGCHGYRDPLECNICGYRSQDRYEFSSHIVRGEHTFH
T4 sequence (Q96SW2 whole entry): as the sequence (Q96SW2 whole entry) above
T4 sequence (Q16531 whole entry partner): as the sequence (Q16531 whole entry partner) above
T6 sequence (Q96SW2 whole entry): as the sequence (Q96SW2 whole entry) above

| inhibition at 0.5 µM [4] | inhibition at 2 µM [4] | SMILES | IKZF 1 substrate protein remaining % (IKZF1) | CK1α substrate protein remaining % (CK1α) | IKZF3 substrate protein remaining % (IKZF3) | IKZF2 substrate protein remaining % (IKZF2) | Wee1 substrate protein remaining % (WEE1) | inhibition at 0.01 µM [2] | inhibition at 0.5 µM [2] | GSPT1 substrate protein remaining % (GSPT1) | inhibition at 0.01 µM [5] | inhibition at 0.5 µM [5] | inhibition at 0.01 µM [6] | inhibition at 0.5 µM [6] | also measured |
| --- | --- | --- | --- | --- | --- | --- | --- | --- | --- | --- | --- | --- | --- | --- | --- |
| 60 to 80% | 80 to 100% | O=C1CCC(N2Cc3cc(CN4CCN(c5cccc(F)c5F)CC4)ccc3C2=S)C(=O)N1 (centres unmarked) [GT-08210, 3-(5-((4-(2,3-difluorophenyl)piperazin-1-yl)methyl)-1-thioxoisoindolin-2-yl)piperidine-2,6-dione] | A (0% ≤ substrate protein remaining % ≤ 80%) | B (80%< substrate protein remaining %≤ 100%) | A (0% ≤ substrate protein remaining % ≤ 80%) | A (0% ≤ substrate protein remaining % ≤ 80%) | A (0% ≤ substrate protein remaining % ≤ 80%) | 20 to 30% | 80 to 100% | A (0% ≤ substrate protein remaining % ≤ 80%) | 20 to 30% | 60 to 70% | 5 to 10% | 80 to 100% | inhibition at 0.01 µM [1, 9]: 20 to 30%; inhibition at 0.5 µM [1, 10]: 80 to 100%; inhibition at 0.01 µM [3, 9]: 10 to 20%; inhibition at 0.5 µM [3, 10]: 80 to 100% |
| 60 to 80% | 80 to 100% | COc1ccccc1N1CCN(Cc2cccc3c2CN(C2CCC(=O)NC2=O)C3=S)CC1 (centres unmarked) [GT-08260, 3-(4-((4-(2-methoxyphenyl)piperazin-1-yl)methyl)-1-thioxoisoindolin-2-yl)piperidine-2,6-dione] | B (80%< substrate protein remaining %≤ 100%) | B (80%< substrate protein remaining %≤ 100%) | B (80%< substrate protein remaining %≤ 100%) | B (80%< substrate protein remaining %≤ 100%) | A (0% ≤ substrate protein remaining % ≤ 80%) | – | – | A (0% ≤ substrate protein remaining % ≤ 80%) | – | – | – | – | inhibition at 0.01 µM [7, 9]: 20 to 30%; inhibition at 0.5 µM [7, 10]: 40 to 50%; inhibition at 0.01 µM [8, 9]: 70 to 80%; inhibition at 0.5 µM [8, 10]: 70 to 80% |

| SMILES | inhibition at 0.5 µM [4] | inhibition at 2 µM [4] | IKZF 1 substrate protein remaining % (IKZF1) | CK1α substrate protein remaining % (CK1α) | IKZF3 substrate protein remaining % (IKZF3) | IKZF2 substrate protein remaining % (IKZF2) | Wee1 substrate protein remaining % (WEE1) | inhibition at 0.01 µM [2] | inhibition at 0.5 µM [2] | GSPT1 substrate protein remaining % (GSPT1) | inhibition at 0.01 µM [5] | inhibition at 0.5 µM [5] | inhibition at 0.01 µM [6] | inhibition at 0.5 µM [6] | also measured |
| --- | --- | --- | --- | --- | --- | --- | --- | --- | --- | --- | --- | --- | --- | --- | --- |
| CC1(C)CCC(CN2CC3CCC(C2)N3Cc2cccc3c2CN(C2CCC(=O)NC2=O)C3=S)=C(c2ccc(Cl)cc2)C1 (centres unmarked) [GT-08292, 3-(4-((3-((4'-chloro-5,5-dimethyl-3,4,5,6-tetrahydro-[1,1'-biphenyl]-2-yl)methyl)-3,8-diazabicyclo[3.2.1]octan-8-yl)methyl)-1-thioxoisoindolin-2-yl)piperidine-2,6-dione] | 30 to 40% | 60 to 80% | B (80%< substrate protein remaining %≤ 100%) | A (0% ≤ substrate protein remaining % ≤ 80%) | B (80%< substrate protein remaining %≤ 100%) | B (80%< substrate protein remaining %≤ 100%) | A (0% ≤ substrate protein remaining % ≤ 80%) | 60 to 70% | 50 to 60% | A (0% ≤ substrate protein remaining % ≤ 80%) | 30 to 40% | 30 to 40% | 60 to 80% | 60 to 80% | – |
